ChEMBL document CHEMBL1201862, “PubChem BioAssay data set” (2004)
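Following 48 hours of exposure in 96-well plates, responses at five concentrations were used to interpolate endpoints linearly. At the GI50, growth is halved.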 Calls of active or inactive are those of the source. No stated cut-off is given here; in the data, active = GI50 up to about 1.1 µM and inactive = higher.

Tests used:
Assay in all cases: NCI-60 cell line screen, 48 h
SR = test system: SR
NCI-H522 = test system: NCI-H522
OVCAR-5 = test system: OVCAR-5
M14 = test system: M14
SN12C = test system: SN12C
UACC-257 = test system: UACC-257
HL-60 = test system: HL-60
SW-620 = test system: SW-620
LOX IMVI = test system: LOX IMVI
A549 = test system: A549
HCC 2998 = test system: HCC 2998
IGROV-1 = test system: IGROV-1
HOP-92 = test system: HOP-92
UO-31 = test system: UO-31
SF-539 = test system: SF-539
HCT-116 = test system: HCT-116
MCF7 = test system: MCF7
Malme-3M = test system: Malme-3M
786-0 = test system: 786-0
MDA-N = test system: MDA-N

SMILES	GI50 (SR)	GI50 (NCI-H522)	GI50 (OVCAR-5)	GI50 (M14)	GI50 (SN12C)	GI50 (UACC-257)	GI50 (HL-60)	GI50 (SW-620)	GI50 (LOX IMVI)	GI50 (A549)	GI50 (HCC 2998)	GI50 (IGROV-1)	GI50 (HOP-92)	GI50 (UO-31)	GI50 (SF-539)	GI50 (HCT-116)	GI50 (MCF7)	GI50 (Malme-3M)	GI50 (786-0)	GI50 (MDA-N)
[O-][S+]1c2ccccc2N=C(c2ccc3ccccc3c2)CC1c1ccccc1 (stereo unspecified)	17.9 µM (inactive)	18.2 µM (inactive)	21.5 µM (inactive)	47.2 µM (inactive)	34.4 µM (inactive)	28.1 µM (inactive)	25.9 µM (inactive)	15.3 µM (inactive)	21.1 µM (inactive)	21.3 µM (inactive)	21.9 µM (inactive)	16.9 µM (inactive)	35.6 µM (inactive)	18.4 µM (inactive)	18.4 µM (inactive)	19.1 µM (inactive)				
Cc1ccc2nc3c(C(=O)NCCN(C)C)cccc3cc2c1			2.1 µM (inactive)		1.76 µM (inactive)	2.09 µM (inactive)	1.23 µM (inactive)	1.39 µM (inactive)	1.71 µM (inactive)	1.33 µM (inactive)	3.8 µM (inactive)	2.23 µM (inactive)	1.75 µM (inactive)	1.4 µM (inactive)	3.15 µM (inactive)	0.807 µM (active)	2.81 µM (inactive)	1.77 µM (inactive)		
O=C1CCC(=O)C12CCc1cccc(O)c12				> 100 µM (inactive)	> 100 µM (inactive)		> 100 µM (inactive)	> 100 µM (inactive)	> 100 µM (inactive)	> 100 µM (inactive)	> 100 µM (inactive)	> 100 µM (inactive)	> 100 µM (inactive)	> 100 µM (inactive)				> 100 µM (inactive)	> 100 µM (inactive)	
COC(=O)Nc1nc2cc(C(=O)c3ccc[nH]3)ccc2[nH]1		0.402 µM (active)	> 100 µM (inactive)	0.571 µM (active)	1.15 µM (inactive)		0.0689 µM (active)	0.359 µM (active)	0.462 µM (active)		2.55 µM (inactive)	1.7 µM (inactive)		1.21 µM (inactive)	2.4 µM (inactive)	0.267 µM (active)	0.341 µM (active)	0.418 µM (active)	1.69 µM (inactive)	0.134 µM (active)
CC12CCC([C@H](Nc3cc(C(F)(F)F)cc(C(F)(F)F)c3)C1=O)C2(C)C (stereo partly specified)	> 100 µM (inactive)		> 100 µM (inactive)	> 100 µM (inactive)		> 100 µM (inactive)		> 100 µM (inactive)	> 100 µM (inactive)	> 100 µM (inactive)	> 100 µM (inactive)	47.3 µM (inactive)		> 100 µM (inactive)	> 100 µM (inactive)	> 100 µM (inactive)		> 100 µM (inactive)	> 100 µM (inactive)	
COC(=O)C(=O)C(C#N)c1cccc(Cl)c1 (stereo unspecified)	> 100 µM (inactive)	> 100 µM (inactive)	> 100 µM (inactive)	> 100 µM (inactive)	> 100 µM (inactive)	> 100 µM (inactive)	> 100 µM (inactive)	> 100 µM (inactive)	> 100 µM (inactive)	> 100 µM (inactive)	> 100 µM (inactive)	> 100 µM (inactive)		> 100 µM (inactive)	> 100 µM (inactive)	> 100 µM (inactive)		> 100 µM (inactive)	> 100 µM (inactive)	
CN1C2CCC1C(CO)C(=O)C2 (stereo unspecified)	26.1 µM (inactive)	16.1 µM (inactive)				85.1 µM (inactive)	3.56 µM (inactive)	20.4 µM (inactive)	> 100 µM (inactive)		> 100 µM (inactive)	> 100 µM (inactive)	> 100 µM (inactive)		23.2 µM (inactive)		22.6 µM (inactive)	28.9 µM (inactive)		
CCOc1ccc(O)cc1[P+](c1ccccc1)(c1ccccc1)c1ccccc1		1.14 µM (inactive)	2.66 µM (inactive)	4.45 µM (inactive)	3.13 µM (inactive)	0.647 µM (active)	0.501 µM (active)		2.59 µM (inactive)	4.69 µM (inactive)	2.82 µM (inactive)			17.4 µM (inactive)	3.83 µM (inactive)	2.19 µM (inactive)		3.65 µM (inactive)	7.24 µM (inactive)	
Cc1nc2c(cc1C(=O)N/N=C/c1ccc([N+](=O)[O-])cc1)c(=O)n(C)c(=O)n2C			> 100 µM (inactive)	> 100 µM (inactive)	> 100 µM (inactive)	> 100 µM (inactive)	> 100 µM (inactive)	> 100 µM (inactive)		> 100 µM (inactive)	> 100 µM (inactive)	42.4 µM (inactive)		> 100 µM (inactive)		56.4 µM (inactive)	> 100 µM (inactive)	> 100 µM (inactive)	26.5 µM (inactive)	> 100 µM (inactive)
CC1=C(N(C)C)C(=O)c2nc3n(c2C1=O)CCC3OC(N)=O (stereo unspecified)	31.3 µM (inactive)	15.2 µM (inactive)	19.6 µM (inactive)	13.6 µM (inactive)	15.2 µM (inactive)	14.2 µM (inactive)	10.4 µM (inactive)	18.7 µM (inactive)	10.9 µM (inactive)	18.8 µM (inactive)	18.2 µM (inactive)	16.8 µM (inactive)	14.8 µM (inactive)	17.3 µM (inactive)	17.5 µM (inactive)	15.4 µM (inactive)		11.2 µM (inactive)	17.1 µM (inactive)	
CC1OC1C(=O)C1(O)C(C)C(O)C23OC2(C(O)c2c(O)cccc2C3=O)C1O (stereo unspecified) [CERVICARCIN]		0.0964 µM (active)	0.31 µM (active)		0.0557 µM (active)	0.1 µM (active)	0.152 µM (active)	0.078 µM (active)	0.2 µM (active)	0.0488 µM (active)	0.1 µM (active)	0.219 µM (active)	0.033 µM (active)	0.137 µM (active)	0.0647 µM (active)	0.226 µM (active)	0.228 µM (active)	0.0431 µM (active)		
COc1ccc2c3c1O[C@H]1C[C@@H](O)C=C[C@@]31CCN(C)C2 [GALANTAMINE]		> 150 µM (inactive)	> 150 µM (inactive)		> 150 µM (inactive)	> 150 µM (inactive)	141 µM (inactive)	> 150 µM (inactive)	> 150 µM (inactive)	> 150 µM (inactive)	> 150 µM (inactive)	> 150 µM (inactive)	> 150 µM (inactive)	> 150 µM (inactive)	> 18.9 µM (inactive)	> 150 µM (inactive)	> 36 µM (inactive)	> 150 µM (inactive)		
O=c1cc[nH]c(=O)[nH]1 [URACIL]		371 µM (inactive)	> 746 µM (inactive)		502 µM (inactive)	804 µM (inactive)	581 µM (inactive)	361 µM (inactive)	375 µM (inactive)	435 µM (inactive)	322 µM (inactive)	> 828 µM (inactive)	311 µM (inactive)	1000 µM (inactive)	378 µM (inactive)	261 µM (inactive)	398 µM (inactive)			
